According to article PMC5481520 (Microbial Biotechnology, 2017):

Molecular target: T1, LdtR (Candidatus Liberibacter asiaticus, UniProt A0ABN4AZS1)
T1 construct: gene WSI_01095
Type: binding
Conditions: promoters of CLIBASIA_02120 and CLIBASIA_03520; pH 7.2, 150 mM KCl, 10 mM MgCl2, 37 °C

Structure (SMILES)	EMSA, disruption of LdtR binding to promoter DNA
O=C(CCc1ccc(O)cc1)c1c(O)cc(O)cc1O [phloretin]	benzbromarone and phloretin disrupted the binding of LdtR to both promoters (Fig. S2)
CCc1oc2ccccc2c1C(=O)c1cc(Br)c(O)c(Br)c1 [benzbromarone]	benzbromarone and phloretin disrupted the binding of LdtR to both promoters (Fig. S2)
